Data set [1] is described as follows: Chemical stability (thermal, alkaline and acidic media). In kind it is physicochemical.
The conditions of data set [2]: findings of SCCS; cited from earlier work.

For the compound `CC(=CCCC=O)CCCC(C)(C)O` [(I), 5,9-dimethyl-9-hydroxy-decen-4-al], in data set [1], the “Stability in alkaline media” value is given as “unstable in alkaline media” and the Thermal stability entry is given as “thermally unstable”. Further, in data set [1] (above pH 10, ambient temperature), the “Degradation in alkaline conditions” value is recorded as “rapidly degraded”. In data set [1] (above pH 10 or below about pH 4, elevated temperatures, compared with ambient), the “Degradation at elevated temperatures” value was “degradation proceeds even more rapidly”. Moreover, in data set [1] (below about pH 4, ambient temperature), the “Degradation in acidic conditions” value was “rapidly degraded”.
As to `CC(C)(O)CCCC1=CCC(C=O)CC1` (stereo not drawn) [cyclohexal, 4(4-hydroxy-4-methylpentyl) 3-cyclohexene carboxaldehyde], the Allergenicity entry in data set [2] was “allergenic concerns”.
